Data: patent publication EP1200395B1, “UREA DERIVATIVES AS INHIBITORS OF CCR-3 RECEPTOR” (KIRIN BEER KABUSHIKI KAISHA, priority 1999, dated 2001)

What follows are compounds tested against T1, CCR-3 (Homo sapiens, UniProt P51677) (assay: Calcium mobilization assay (inhibition of eotaxin-induced intracellular calcium mobilization in CCR3/HEK293 cells)). Conditions: 1.25 µg/ml test compound; eotaxin 10 nM; CCR3/HEK293 cells (Table 2b).
T1 sequence (P51677 1-355): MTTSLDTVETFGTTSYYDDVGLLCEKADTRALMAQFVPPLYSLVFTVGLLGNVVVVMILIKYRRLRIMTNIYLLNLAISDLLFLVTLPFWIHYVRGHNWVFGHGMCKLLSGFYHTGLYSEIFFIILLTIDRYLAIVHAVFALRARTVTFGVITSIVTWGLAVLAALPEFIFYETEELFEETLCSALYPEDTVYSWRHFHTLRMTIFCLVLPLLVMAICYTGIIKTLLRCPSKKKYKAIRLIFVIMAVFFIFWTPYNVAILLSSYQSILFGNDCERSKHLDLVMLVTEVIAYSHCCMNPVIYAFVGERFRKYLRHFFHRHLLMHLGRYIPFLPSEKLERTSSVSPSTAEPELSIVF
Assay type: cell-based
Parameters: expressed in transfected cells
Method: Compounds 93-162 used in this assay were synthesized by using the method described in Example 6.
CCR-3 transfectant cells (CCR3/HEK293) were isolated and resuspended with assay buffer (20 mM HEPES, 125 mM NaCl, 5 mM KCl; 0.5 mM glucose, 1 mM CaCl2, 1 mM MgCl2, 0.1 % BSA). After washing CCR3/HEK293 cells with assay buffer, cells were loaded with Fura-2/AM in assay buffer for 1 hour at room temperature. Cells were washed and resuspended with assay buffer at 5 x 10^6 cells/ml in assay buffer, and placed in a tissue culture plate (Falcon, no. 3296). Test compounds dissolved in DMSO were added to the wells, followed by eotaxin (10 nM at final concentration). Cells were excited at 340 nm and 380 nm in a fluorimeter (ARGUS50, FDSS2000, Hamamatsu Photonics) and the relative ratio of the fluorescence emitted at 510 nm was recorded. For a control, DMSO without a test compound was added. Intracellular calcium mobilization was calculated as described in Krogel C. et al. , FEBS Let. (1989) 243 , 41-46.

Ca^2+ mobilization 1.25 µg/ml (inhibition %) | Structure (SMILES)
63% | CC[N+](CCCNC(=O)Nc1ccc(Cl)c(Cl)c1)(CCOCCOC)CCc1ccc(Cl)cc1.[I-] (stereo not drawn) [compound 355]
57% | CC[N+](CCCNC(=O)Nc1ccc(Cl)c(Cl)c1)(CCOCCOC)CCc1cccc(Cl)c1.[I-] (stereo not drawn) [compound 356]
57% | CC[N+](CCCNC(=O)Nc1ccc(Cl)c(Cl)c1)(CCOCCOC)CCc1ccc(Cl)cc1Cl.[I-] (stereo not drawn) [compound 357]
63% | CC[N+](CCCNC(=O)Nc1ccc(Cl)c(Cl)c1)(CCOCCOC)CCc1ccc(Cl)c(Cl)c1.[I-] (stereo not drawn) [compound 358]
70% | CC[N+](CCCNC(=O)Nc1ccc(Cl)c(Cl)c1)(CCc1cccc(Cl)c1)CC1CCC1.[I-] (stereo not drawn) [compound 361]
49% | CC[N+](CCCNC(=O)Nc1ccc(Cl)c(Cl)c1)(CCc1ccc(Cl)cc1Cl)CC1CCC1.[I-] (stereo not drawn) [compound 362]
56% | CC[N+](CCCNC(=O)Nc1ccc(Cl)c(Cl)c1)(CCc1ccc(Cl)c(Cl)c1)CC1CCC1.[I-] (stereo not drawn) [compound 363]
66% | C=C(C)C[N+](CC)(CCCNC(=O)Nc1ccc(Cl)c(Cl)c1)CCc1ccc(Cl)cc1.[I-] (stereo not drawn) [compound 364]
65% | C=C(C)C[N+](CC)(CCCNC(=O)Nc1ccc(Cl)c(Cl)c1)CCc1cccc(Cl)c1.[I-] (stereo not drawn) [compound 365]
46% | C=C(C)C[N+](CC)(CCCNC(=O)Nc1ccc(Cl)c(Cl)c1)CCc1ccc(Cl)cc1Cl.[I-] (stereo not drawn) [compound 366]
50% | C=C(C)C[N+](CC)(CCCNC(=O)Nc1ccc(Cl)c(Cl)c1)CCc1ccc(Cl)c(Cl)c1.[I-] (stereo not drawn) [compound 367]
56% | CC[N+](CCCNC(=O)Nc1ccc(C#N)cc1)(CCc1cccc(Cl)c1)CCC(C)C.[I-] (stereo not drawn) [compound 393]
69% | CC[N+](CCCNC(=O)Nc1ccc(C#N)cc1)(CCOCCOC)CCc1ccc(Cl)cc1Cl.[I-] (stereo not drawn) [compound 395]
67% | CC[N+](CCCNC(=O)Nc1ccc(C#N)cc1)(CCOCCOC)CCc1ccc(Cl)c(Cl)c1.[I-] (stereo not drawn) [compound 396]
69% | CC[N+](CCCNC(=O)Nc1ccc(C#N)cc1)(CCc1cccc(Cl)c1)CC1CCC1.[I-] (stereo not drawn) [compound 397]
70% | CC[N+](CCCNC(=O)Nc1ccc(C#N)cc1)(CCc1ccc(Cl)cc1Cl)CC1CCC1.[I-] (stereo not drawn) [compound 398]
58% | C=C(C)C[N+](CC)(CCCNC(=O)Nc1ccc(C#N)cc1)CCc1cccc(Cl)c1.[I-] (stereo not drawn) [compound 399]
68% | C=C(C)C[N+](CC)(CCCNC(=O)Nc1ccc(C#N)cc1)CCc1ccc(Cl)cc1Cl.[I-] (stereo not drawn) [compound 400]
57% | C=C(C)C[N+](CC)(CCCNC(=O)Nc1ccc(C#N)cc1)CCc1ccc(Cl)c(Cl)c1.[I-] (stereo not drawn) [compound 401]
62% | CC[N+](CCCNC(=O)Nc1ccc(OC)cc1)(CCc1cccc(Cl)c1)CCC(C)C.[I-] (stereo not drawn) [compound 435]
57% | CC[N+](CCCNC(=O)Nc1ccc(OC)cc1)(CCc1ccc(Cl)c(Cl)c1)CCC(C)C.[I-] (stereo not drawn) [compound 436]
64% | CC[N+](CCCNC(=O)Nc1ccc(OC)cc1)(CCc1ccc(Cl)c(Cl)c1)CC(N)=O.[I-] (stereo not drawn) [compound 437]
62% | CC[N+](CCCNC(=O)Nc1ccc(OC)cc1)(CCc1ccc(Cl)cc1)CC1CCC1.[I-] (stereo not drawn) [compound 440]
71% | CC[N+](CCCNC(=O)Nc1ccc(OC)cc1)(CCc1cccc(Cl)c1)CC1CCC1.[I-] (stereo not drawn) [compound 441]
63% | CC[N+](CCCNC(=O)Nc1ccc(OC)cc1)(CCc1ccc(Cl)cc1Cl)CC1CCC1.[I-] (stereo not drawn) [compound 442]
69% | CC[N+](CCCNC(=O)Nc1ccc(OC)cc1)(CCc1ccc(Cl)c(Cl)c1)CC1CCC1.[I-] (stereo not drawn) [compound 443]

Structure (SMILES) | Ca^2+ mobilization 1.25 µg/ml (inhibition %)
CC[N+](CCCNC(=O)Nc1ccc(C#N)cc1)(CCOCCOC)CCc1cccc(Cl)c1.[I-] (stereo not drawn) [Compound 394, [3-(4-Cyanophenylureido)propyl][2-(3-chlorophenyl)ethyl][2-(2-methoxyehtoxy)ethyl] ethylammonium iodide] | 76%
CC[N+](CCCNC(=O)Nc1ccc(OC)cc1)(CCOCCOC)CCc1cccc(Cl)c1.[I-] (stereo not drawn) [Compound 438, [3-(4-Methoxyphenylureido)propyl][2-(3-chlorophenyl)ethyl][2-(2-methoxyehtoxy)ethyl] ethylammonium iodide] | 70%

Same assay, conditions: 6.25 µg/ml test compound; eotaxin 10 nM; CCR3/HEK293 cells (Table 2a)

Ca^2+ mobilization 6.25 µg/ml (inhibition %) | Structure (SMILES)
53% | O=C(NCCCN(CCOCc1ccccc1)C1CCCc2ccccc21)Nc1ccc(Br)cc1 (stereo not drawn) [Compound 123]
55% | CSCCCN(CCCNC(=O)Nc1ccc(Br)cc1)C1CCCc2ccccc21 (stereo not drawn) [Compound 124]
59% | O=C(NCCCN(CCOCc1ccccc1)Cc1ccc2c(c1)OCO2)Nc1ccc(Br)cc1 [Compound 127]
50% | CC(C)CN(CCCNC(=O)Nc1ccc(Br)cc1)Cc1ccc(C(F)(F)F)cc1 [Compound 129]
51% | CSCCCN(CCCNC(=O)Nc1ccc(Br)cc1)Cc1ccc(C(F)(F)F)cc1 [Compound 130]
52% | COc1cc(CN(CCCNC(=O)Nc2ccc(Br)cc2)CCC(C)C)cc(OC)c1OC [Compound 131]
59% | O=C(NCCCN(CCc1ccc(Cl)c(Cl)c1)C[C@@H]1CCCN1)Nc1ccc(Br)cc1 [Compound 134]
65% | COc1ccc(CCN(CCCNC(=O)Nc2cccc(C)c2)CCCSC)cc1OC [Compound 139]
54% | COc1ccc(CCN(CCCNC(=O)Nc2cccc(C)c2)CCCC(=O)O)cc1OC [Compound 140]
53% | CSCCCN(CCCNC(=O)Nc1cccc(C)c1)CCc1ccc(C)cc1 [Compound 141]
58% | CSCCCN(CCCNC(=O)Nc1cccc(C)c1)CCc1ccc(Cl)c(Cl)c1 [Compound 142]
64% | Cc1cccc(NC(=O)NCCCN(CCc2ccc(Cl)c(Cl)c2)C[C@@H]2CCCN2)c1 [Compound 143]
51% | O=C(NCCCN(CCc1ccccc1)Cc1ccco1)Nc1cccc(Cl)c1 [Compound 144]
53% | CC(C)CCN(CCCNC(=O)Nc1cccc(Cl)c1)Cc1cccs1 [Compound 145]
52% | CCOC(=O)C1CC1CN(CCCNC(=O)Nc1cccc(Cl)c1)Cc1cccs1 (stereo not drawn) [Compound 146]
51% | O=C(NCCCN(CCc1c[nH]cn1)CC1CCCCC1)Nc1cccc(Cl)c1 [Compound 147]
57% | O=C(NCCCN(CCOCc1ccccc1)CCc1c[nH]cn1)Nc1cccc(Cl)c1 [Compound 148]
70% | O=C(NCCCN(C[C@@H]1CCCN1)C1CCCc2ccccc21)Nc1cccc(Cl)c1 (stereo partly drawn) [Compound 150]
54% | Cc1ccc(CCN(CCCNC(=O)Nc2cccc(Cl)c2)CC(C)C)cc1 [Compound 151]
54% | Cc1ccc(CCN(CCCNC(=O)Nc2cccc(Cl)c2)CCOCc2ccccc2)cc1 [Compound 152]
59% | CCOC(=O)C1CC1CN(CCCNC(=O)Nc1cccc(Cl)c1)CCc1ccc(C)cc1 (stereo not drawn) [Compound 153]
55% | O=C(NCCCN(CCc1ccc(Cl)c(Cl)c1)CC1CCCCC1)Nc1cccc(Cl)c1 [Compound 154]
63% | COC(=O)CCCN(CCCNC(=O)Nc1cccc(Cl)c1)CCc1ccc(Cl)c(Cl)c1 [Compound 156]
53% | COc1ccc(NC(=O)NCCCN(CCCSC)C2CCCc3ccccc32)c(OC)c1 (stereo not drawn) [Compound 157]
50% | COc1ccc(NC(=O)NCCCN(CCCSC)CCc2ccc(Cl)c(Cl)c2)c(OC)c1 [Compound 158]
51% | COc1ccc(NC(=O)NCCCN(CCOCc2ccccc2)CCc2ccc(OC)c(OC)c2)cc1 [Compound 159]
58% | COC(=O)CCCN(CCCNC(=O)Nc1ccc(Cl)c(Cl)c1)Cc1ccc2c(c1)OCO2 [Compound 160]
51% | O=C(O)CCCN(CCCNC(=O)Nc1cccc2ccccc12)Cc1ccc(C(F)(F)F)cc1 [Compound 161]
50% | CCOC(=O)C1CC1CN(CCCNC(=O)Nc1cccc2ccccc12)CCc1ccccc1 (stereo not drawn) [Compound 162]
